Usually IC50 stands for the point on the concentration scale where inhibition reaches its midpoint.

For one test, the target named is T1, FTO (Homo sapiens, UniProt Q9C0B1).
T1 construct: The human full length FTO construct used in this study; made in house; host or cells: E. coli BL21 (DE3) Rosetta T1R
T1 sequence (Q9C0B1 whole entry): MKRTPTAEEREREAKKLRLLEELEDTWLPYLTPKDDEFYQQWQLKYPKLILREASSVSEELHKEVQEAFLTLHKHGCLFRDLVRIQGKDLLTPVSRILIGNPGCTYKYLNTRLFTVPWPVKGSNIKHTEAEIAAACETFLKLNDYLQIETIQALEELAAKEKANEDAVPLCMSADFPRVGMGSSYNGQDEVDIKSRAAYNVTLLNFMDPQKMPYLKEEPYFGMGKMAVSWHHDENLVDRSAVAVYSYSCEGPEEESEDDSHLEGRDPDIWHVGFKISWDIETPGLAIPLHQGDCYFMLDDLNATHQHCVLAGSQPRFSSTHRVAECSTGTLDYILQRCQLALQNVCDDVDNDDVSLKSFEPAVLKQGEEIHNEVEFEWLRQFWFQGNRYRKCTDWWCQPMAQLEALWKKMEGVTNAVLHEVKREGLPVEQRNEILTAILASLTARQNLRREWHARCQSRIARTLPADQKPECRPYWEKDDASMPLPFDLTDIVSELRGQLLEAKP
In words: Differential scanning fluorimetry (DSF)-based binding assay, FTO. To be noted: 100 μM compound, 2 μM protein, 50 μM MnCl2, read-out: Tm shift (FTO). The protocol:
(§1) Superdex-200 column (GE Healthcare) pre-equilibrated with 20 mM HEPES, pH 7.5, 300 mM NaCl, 10% (v/v) glycerol, 0.5 mM TCEP. […]
(§2) Differential scanning fluorimetry (DSF)-based binding assay
DSF-based binding assay was performed using a MiniOpticon™ Real-Time PCR Detection System (Bio-Rad), monitoring protein unfolding using SYPRO orange (Invitrogen) according […]
to the reported method.[16] […]
and emission respectively. Reaction mixes contained 2 μM protein, 50 μM MnCl2, 100 μM […]
Reagents were prepared in 50mM
HEPES buffer, pH 7.5 except metals, which were dissolved as 100 mM stocks in 20 mM HCl, then further diluted in MilliQ water. Compounds tested were prepared in 100% DMSO and added such that the final concentration of DMSO was not more than 1% v/v of assay […]
increased linearly by 1°C min -1. The software provided was used to perform global minimum subtraction. The inflection point, representing Tm, was calculated by fitting the Boltzmann equation to the sigmoidal curves obtained; data were processed using GraphPad Prism 6.0™.
The Tm shift caused by the addition of small molecules/ fragments was determined by subtraction of the “reference” Tm (protein incubated with metal and 1% v/v DMSO) from the Tm obtained in the presence of the compound. […]
For orientation: Differential scanning fluorimetry follows unfolding on heating by fluorescence.
`O=C(O)C=CC(=O)NNC(=O)c1cc(Cc2ccccc2)ccn1` [Compound 22]: the ΔTm at 100 µM stood at 3 °C.
Same read-out and setting: as for `O=C(O)/C=C/C(=O)NNC(=O)c1ccccn1` [Compound 23], the figure is 2.7 °C.

In the next test the target is T2, AlkB (Escherichia coli, UniProt P05050).
T2 construct: made in house; host or cells: E. coli BL21 (DE3) Rosetta T1R
T2 sequence (P05050 12-216): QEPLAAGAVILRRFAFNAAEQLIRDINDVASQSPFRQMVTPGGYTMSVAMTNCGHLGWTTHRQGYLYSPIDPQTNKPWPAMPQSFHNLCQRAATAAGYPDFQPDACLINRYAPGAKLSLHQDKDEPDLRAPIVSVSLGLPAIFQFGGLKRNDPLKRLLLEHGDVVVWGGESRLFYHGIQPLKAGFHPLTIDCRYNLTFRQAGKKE
In words: HPLC-based inhibition assay for AlkB, m1A-ssDNA substrate. In kind it is biochemical.
Conditions: not given
The protocol: HPLC-based inhibition assays for AlkB and ALKBH2
The assay was modified from previously reported method.[18] A 15-mer m1A-ssDNA substrate with the sequence 5’-AAAGCAG(m1A)ATTCGAA-3 ’ (Yale University, W.M.
Keck Foundation Biotechnology Resource Laboratory) was used in this inhibition assay. The assay was performed in triplicate for each inhibitor, in a final reaction volume of 25 µL.
Reaction consisted of AlkB (1 µM) or ALKBH2 (2 µM), 2OG (50 µM), (NH4)2Fe(SO4)2·6H2O (50 µM), L-ascorbate (2 mM), m1A-ssDNA substrate (10 µM), in 50 mM HEPES buffer, pH 7.5, and inhibitor at various concentrations (final DMSO concentration not more than 1% v/v of assay mix). The reaction was incubated at 4°C for 10 min, before analysis on a bio-inert HPLC system. The m1A-ssDNA substrate and the corresponding demethylated product were separated using a Dionex DNAPac PA200 anion-exchange column (8 µm, […]) with a gradient of 98% solvent A (50 mM sodium citrate buffer, pH 5.5) to 65% solvent B (50 mM sodium citrate buffer, pH 5.5 with 1.25 M sodium chloride) over 18 min, at a flow rate of 1 mL/min at 40°C. The UV detection wavelength was set at 266 nm. The percentage inhibition was estimated based on the peak areas of the m1A-ssDNA substrate and the corresponding demethylated product. For IC50 determination, eight different concentrations of inhibitors were used (0, 1, 3, 10, 30, 100, 300, […]
different inhibitor concentrations, using nonlinear regression, with normalized dose-response fit on GraphPad Prism 6.0™. […]
Take `O=C(O)/C=C/C(=O)NNC(=O)c1cnccc1Cc1ccccc1` [Compound 12]: the IC50 stood at 33.5 µM.
The same measure, in the same setting: as for `O=C(O)/C=C/C(=O)NNC(=O)c1cccnc1` [Compound 21], the figure is 169 µM; as for `O=C(O)C=CC(=O)NNC(=O)c1cc(Cc2ccccc2)ccn1` [Compound 22], 67.1 µM.
For the compound `O=C(O)/C=C/C(=O)NNC(=O)c1ccccn1` [Compound 23], inhibition was half-maximal at 181 µM (IC50).

The next test deals with T1, FTO. Put plainly: HPLC-based inhibition assay for FTO, m3T substrate. The settings on record: HPLC-based demethylase assay, m3T substrate; read-out: IC50 (FTO). In kind it is biochemical. The method, then: HPLC-based inhibition assays for FTO
The assay was modified from previously reported method.[17] It is performed in triplicate for each inhibitor, in a final reaction volume of 25 µL. Reaction consisted of FTO (1 µM), 2OG (50 µM), (NH4)2Fe(SO4)2·6H2O (50 µM), L-ascorbate (2 mM), 3-methylthymidine (m3T substrate, 10 µM) in 50 mM HEPES buffer, pH 7.5, and inhibitor at various concentrations (final DMSO concentration not more than 1% v/v of assay mix). The reaction was incubated at 4°C for 1 h, before analysis on a HPLC system. The substrate (m3T) and the demethylated product (thymidine) were separated using a Zorbax C18 column (4.6 mm x 250 mm) with a […]
flow rate of 1 mL/min at room temperature.
The percentage inhibition was estimated based on the peak areas of the 3-methylthymidine substrate and the thymidine product. For IC50 determination, eight different concentrations of […]
the variation in percentage demethylation at different inhibitor concentrations, using nonlinear regression, with normalized dose-response fit on GraphPad Prism 6.0™.
HPLC-based assay for FTO was also performed using an m6A-ssRNA as substrate. The assay was modified from previously reported method.[21] All reaction conditions are as described for the inhibition of m3T demethylation above, except that a 15-mer ssRNA with the sequence 5’-CUUGUCA(m6A)CAGCAGA-3’ (Yale University, W.M. Keck Foundation Biotechnology Resource Laboratory) was used as substrate (10 µM). The reaction was analysed on a bio-inert HPLC system. The m6A-ssRNA substrate and the corresponding demethylated product were separated using a Dionex DNAPac PA200 anion-exchange
For `O=C(O)C=CC(=O)NNC(=O)c1cc(Cc2ccccc2)ccn1` [Compound 22], the 50% inhibitory concentration (IC50) was 86.8 µM.
Same read-out and setting: as for `O=C(O)/C=C/C(=O)NNC(=O)c1ccccn1` [Compound 23], the figure is 109 µM.

A further test has as its target T2, AlkB. Put plainly: Differential scanning fluorimetry (DSF)-based binding assay, AlkB. The settings on record: 100 μM compound, 2 μM protein, 50 μM MnCl2, read-out: Tm shift (AlkB). The protocol: as §1, §2
DSF-based binding assay was performed using a MiniOpticon™ Real-Time PCR Detection System (Bio-Rad), monitoring protein unfolding using SYPRO orange (Invitrogen) according to the reported method.[16] FAM (492 nm) and ROX (610 nm) filters were used for excitation and emission respectively. Reaction mixes contained 2 μM protein, 50 μM MnCl2, 100 μM compounds, 5x SYPRO orange in a final volume of 50 μl. Reagents were prepared in 50mM HEPES buffer, pH 7.5 except metals, which were dissolved as 100 mM stocks in 20 mM HCl, then further diluted in MilliQ water. Compounds tested were prepared in 100% DMSO and added such that the final concentration of DMSO was not more than 1% v/v of assay […]
mix. Fluorescence readings were taken every 1°C in the range 25-95°C, with the temperature increased linearly by 1°C min -1. The software provided was used to perform global minimum subtraction. The inflection point, representing Tm, was calculated by fitting the Boltzmann equation to the sigmoidal curves obtained; data were processed using GraphPad Prism 6.0™.
The Tm shift caused by the addition of small molecules/ fragments was determined by subtraction of the “reference” Tm (protein incubated with metal and 1% v/v DMSO) from the Tm obtained in the presence of the compound. The assay was performed in triplicate for each inhibitor, with standard deviations typically < 1°C. […]
For the compound `O=C(O)/C=C/C(=O)NNC(=O)c1cnccc1Cc1ccccc1` [Compound 12], the ΔTm at 100 µM amounted to 4.5 °C.
As for `O=C(O)/C=C/C(=O)NNC(=O)c1cccnc1` [Compound 21], the ΔTm at 100 µM was determined as 1.8 °C.
Regarding `O=C(O)C=CC(=O)NNC(=O)c1cc(Cc2ccccc2)ccn1` [Compound 22], the ΔTm at 100 µM was 3.2 °C.
In the case of `O=C(O)/C=C/C(=O)NNC(=O)c1ccccn1` [Compound 23], the ΔTm at 100 µM came out at 1.5 °C.

For the origin of these results see article PMC5424463, “A strategy based on nucleotide specificity leads to a subfamily-selective and cell-active inhibitor of N ^6-methyladenosine demethylase FTO” (Chemical Science, 2014).
